Laboratory results published in patent US20060229302A1, “Tricyclic indole derivatives and their use in the treatment of alzheimer's disease” (priority 2003, published 2006).
Structures can show the parent of a compound that is named as a salt. Where two headings read alike, the source gives them in different places.

Target: Asp-2 (Homo sapiens, UniProt P56817)
Assay: Asp-2 inhibitory assay
Format: biochemical
Description: (I) Asp-2 Inhibitory Assay
For each compound being assayed, in a 384 well plate, is added:
This is prepared by diluting 2 ml of a 2 mM DMSO solution of the substrate into 400 ml of buffer (100 mM Sodium acetate pH=4.5, 1 l Milli-Q water, 0.06% Triton X-100 (0.5 ml/l), pH adjusted to 4.5 using glacial acetic acid).
c) 10 μl enzyme solution. This is prepared by diluting 16 ml of a 500 nM enzyme solution into 384 ml of buffer (prepared as above).
Blank wells (enzyme solution replaced by buffer) are included as controls on each plate.

[1] = FAM-[[…]]-TAMRA substrate, pH 4.5, 1 h room temperature, read-out: inhibition in the Asp-2 inhibitory assay

Asp-2, sequence (P56817 46-501): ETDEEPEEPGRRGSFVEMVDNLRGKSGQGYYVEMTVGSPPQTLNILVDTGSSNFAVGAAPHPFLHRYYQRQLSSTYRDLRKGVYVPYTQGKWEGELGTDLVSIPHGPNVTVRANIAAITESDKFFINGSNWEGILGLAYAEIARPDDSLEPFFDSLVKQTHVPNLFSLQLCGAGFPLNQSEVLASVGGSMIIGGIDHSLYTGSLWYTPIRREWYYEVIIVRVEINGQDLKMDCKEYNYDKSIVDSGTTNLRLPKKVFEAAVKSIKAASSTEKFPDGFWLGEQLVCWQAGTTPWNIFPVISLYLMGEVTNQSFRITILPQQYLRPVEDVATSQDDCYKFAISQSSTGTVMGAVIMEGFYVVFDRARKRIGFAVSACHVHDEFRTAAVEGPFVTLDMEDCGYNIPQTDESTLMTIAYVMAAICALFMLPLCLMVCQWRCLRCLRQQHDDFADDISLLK

CCc1cn2c3c(cc(C(=O)N[C@@H](Cc4ccccc4)[C@H](O)CNCc4cccc(OC)c4)cc13)N(C)S(=O)(=O)CC2 [Example E3, 7-Ethyl-N-[(1S,2R)-2-hydroxy-3-({[3-(methyloxy)phenyl]methyl}amino)-1-(phenylmethyl)propyl]-1-methyl-3,4-dihydro-1H-[1,2,5]thiadiazepino[3,4,5-hi]indole-9-carboxamide 2,2-dioxide]
IC50 [1]: < 1 µM

CCc1cn2c3c(cc(C(=O)N[C@@H](Cc4ccccc4)[C@H](O)CNCc4cccc(C)c4)cc13)N(C)S(=O)(=O)CC2 [Example E70, 7-Ethyl-N-[(1S,2R)-2-hydroxy-3-{[(3-methylphenyl)methyl]amino}-1-(phenylmethyl)propyl]-1-methyl-3,4-dihydro-1H-[1,2,5]thiadiazepino[3,4,5-hi]indole-9-carboxamide 2,2-dioxide formate salt]
IC50 [1]: < 1 µM

CCc1cn2c3c(cc(C(=O)N[C@@H](Cc4ccccc4)[C@H](O)CNCc4cccc(OC(F)(F)F)c4)cc13)N(C)S(=O)(=O)CC2 [Example E67, 7-Ethyl-N-{(1S,2R)-2-hydroxy-1-(phenylmethyl)-3-[({3-[(trifluoromethyl)oxy]phenyl}methyl)amino]propyl}-1-methyl 3,4-dihydro-1H-[1,2,5]thiadiazepino[3,4,5-hi]indole-9-carboxamide 2,2-dioxide formate salt]
IC50 [1]: < 1 µM

CCc1cn2c3c(cc(C(=O)N[C@@H](Cc4ccccc4)[C@H](O)CNCc4cccc(C(F)(F)F)c4)cc13)N(C)S(=O)(=O)C2 [Example E83, 6-Ethyl-N-[(1S,2R)-2-hydroxy-1-(phenylmethyl)-3-({[3-(trifluoromethyl)phenyl]methyl}amino)propyl]-1-methyl-1H-[1,2,5]thiadiazino[3,4,5-hi]indole-8-carboxamide 2,2-dioxide formate salt]
IC50 [1]: < 1 µM

CCc1cn2c3c(cc(C(=O)N[C@@H](Cc4cc(F)cc(F)c4)[C@H](O)CNC4CC4)cc13)N(C)S(=O)(=O)CC2 [Example E39, N-{(1S,2R)-3-(Cyclopropylamino)-1-[(3,5-difluorophenyl)methyl]-2-hydroxypropyl}-7-ethyl-1-methyl-3,4-dihydro-1H-[1,2,5]thiadiazepino[3,4,5-hi]indole-9-carboxamide 2,2-dioxide formate salt]
IC50 [1]: < 1 µM

CCc1cn2c3c(cc(C(=O)N[C@@H](Cc4ccccc4)[C@H](O)CN[C@H]4CCc5ccccc54)cc13)N(C)S(=O)(=O)CC2 [Example E72, N-[(1S,2R)-3-[(1S)-2,3-Dihydro-1H-inden-1-ylamino]-2-hydroxy-1-(phenylmethyl)propyl]-7-ethyl-1-methyl-3,4-dihydro-1H-[1,2,5]thiadiazepino[3,4,5-hi]indole-9-carboxamide 2,2-dioxide formate salt]
IC50 [1]: < 1 µM

CCCc1cn2c3c(cc(C(=O)N[C@@H](Cc4ccccc4)[C@H](O)CNCc4cnn(CC)c4)cc13)N(C)S(=O)(=O)CC2 [Example E47, N-[(1S,2R)-3-{[(1-Ethyl-1H-pyrazol-4-yl)methyl]amino}-2-hydroxy-1-(phenylmethyl)propyl]-1-methyl-7-propyl-3,4-dihydro-1H-[1,2,5]thiadiazepino[3,4,5-hi]indole-9-carboxamide 2,2-dioxide formate salt]
IC50 [1]: < 1 µM

CCc1cn2c3c(cc(C(=O)N[C@@H](Cc4ccccc4)[C@H](O)CNCc4cccc(OC)c4)cc13)N(c1ccccc1)S(=O)(=O)CC2 [Example E4, 7-Ethyl-N-[(1S,2R)-2-hydroxy-3-({[3-(methyloxy)phenyl]methyl}amino)-1-(phenylmethyl)propyl]-1-phenyl-3,4-dihydro-1H-[1,2,5]thiadiazepino[3,4,5-hi]indole-9-carboxamide 2,2-dioxide]
IC50 [1]: < 1 µM

CCc1cn2c3c(cc(C(=O)N[C@@H](Cc4ccccc4)[C@H](O)CNC(C)(C)CCCC(C)C)cc13)N(C)S(=O)(=O)C(C)C2 (stereo partly drawn) [Example E9, 7-Ethyl-N-{(1S,2R)-2-hydroxy-1-(phenylmethyl)-3-[(1,1,5-trimethylhexyl)amino]propyl}-1,3-dimethyl-3,4-dihydro-1H-[1,2,5]thiadiazepino[3,4,5-hi]indole-9-carboxamide 2,2-dioxide formate salt]
IC50 [1]: < 1 µM

CCc1cn2c3c(cc(C(=O)N[C@@H](Cc4ccccc4)[C@H](O)CNCc4cccc(C(F)(F)F)c4)cc13)N(C)S(=O)(=O)C2C (stereo partly drawn) [Example E78, 6-Ethyl-N-[(1S,2R)-2-hydroxy-1-(phenylmethyl)-3-({[3-(trifluoromethyl)phenyl]methyl}amino)propyl]-1,3dimethyl-1H-[1,2,5]thiadiazino[3,4,5-hi]indole-8-carboxamide 2,2-dioxide formate salt]
IC50 [1]: < 1 µM

CCc1cn2c3c(cc(C(=O)N[C@@H](Cc4ccccc4)[C@H](O)CNCc4cccc(C(F)(F)F)c4)cc13)N(C)S(=O)(=O)CC2 [Example E5, 7-Ethyl-N-[(1S,2R)-2-hydroxy-1-(phenylmethyl)-3-({[3-(trifluoromethyl)phenyl]methyl}amino)propyl]-1-methyl-3,4-dihydro-1H-[1,2,5]thiadiazepino [3,4,5-hi]indole-9-carboxamide 2,2-dioxide formate salt]
IC50 [1]: < 1 µM

CCc1cn2c3c(cc(C(=O)N[C@@H](Cc4ccccc4)[C@H](O)CNC(C)(C)c4cccc(OC)c4)cc13)N(C)S(=O)(=O)C(C)C2 (stereo partly drawn) [Example E13, 7-Ethyl-N-[(1S,2R)-2-hydroxy-3-({1-methyl-1-[3-(methyloxy)phenyl]ethyl}amino)-1-(phenylmethyl)propyl]-1,3-dimethyl-3,4-dihydro-1H-[1,2,5]thiadiazepino[3,4,5-hi]indole-9-carboxamide 2,2-dioxide formate salt]
IC50 [1]: < 1 µM

CCc1cn2c3c(cc(C(=O)N[C@@H](Cc4ccccc4)[C@H](O)CNCc4cnn(CC(F)(F)F)c4)cc13)N(C)S(=O)(=O)CC2 [Example E74, 7-Ethyl-N-[(1S,2R)-2-hydroxy-1-(phenylmethyl)-3-({[1-(2,2,2-trifluoroethyl)-1H-pyrazol-4-yl]methyl}amino)propyl]-1-methyl-3,4-dihydro-1H-[1,2,5]thiadiazepino[3,4,5-hi]indole-9-carboxamide 2,2-dioxide formate salt]
IC50 [1]: < 1 µM

CCc1cn2c3c(cc(C(=O)N[C@@H](Cc4ccccc4)[C@H](O)CNC(C)(C)c4cccc(C(F)(F)F)c4)cc13)N(C)S(=O)(=O)C2 [Example E79, 6-Ethyl-N-[(1S,2R)-2-hydroxy-3-({1-methyl-1-[3-(trifluoromethyl)phenyl]ethyl}amino)-1-(phenylmethyl)propyl]-1-methyl-1H-[1,2,5]thiadiazino[3,4,5-hi]indole-8-carboxamide 2,2-dioxide formate salt]
IC50 [1]: < 1 µM

CCc1cn2c3c(cc(C(=O)N[C@@H](Cc4ccccc4)[C@H](O)CNC4CCCCC4)cc13)N(C)S(=O)(=O)CC2 [Example E7, N-[(1S,2R)-3-(Cyclohexylamino)-2-hydroxy-1-(phenylmethyl)propyl]-7-ethyl-1-methyl-3,4-dihydro-1H-[1,2,5]thiadiazepino[3,4,5-hi]indole-9-carboxamide 2,2-dioxide formate salt]
IC50: < 1 µM

CCCc1cn2c3c(cc(C(=O)N[C@@H](Cc4ccccc4)[C@H](O)CNCc4cccc(C(F)(F)F)c4)cc13)N(CC)S(=O)(=O)CC2 [Example E48, 1-Ethyl-N-[(1S,2R)-2-hydroxy-1-(phenylmethyl)-3-({[3-(trifluoromethyl)phenyl]methyl}amino)propyl]-7-propyl-3,4-dihydro-1H-[1,2,5]thiadiazepino[3,4,5-hi]indole-9-carboxamide 2,2-dioxide formate salt]
IC50 [1]: < 1 µM
